Consider 25 compounds from patent publication US20110212943A1, “NOVEL BRIDGED CYCLIC COMPOUNDS AS HISTONE DEACETYLASE INHIBITORS” (ORCHID RESEARCH LABORATORIES LIMITED, priority 2008, published 2011).

Experiment [1] has as its target HDAC (Mouse Liver Extract). Put plainly: Histone Deacetylase (HDAC) Inhibition Assay using Boc-Lys (Ac)-AMC Substrate. The class given is biochemical. Particulars: Mouse liver enzyme, 30 minutes at 37° C. How it is done:
Histone Deacetylase (HDAC) Inhibition Assay using Boc-Lys (Ac)-AMC Substrate: Inhibition of HDAC has been implicated to modulate transcription and to induce apoptosis or differentiation in cancer cells. The fluorometric assay provides a fast and fluorescence based method that eliminates radioactivity, extractions or chromatography, as used in traditional assays. The assay is based on two steps. First, the HDAC fluorometric substrate, which comprises an acetylated lysine side chain, is incubated with a sample containing HDAC activity (Mouse Liver Extract). Deacetylation of the substrate sensitizes the substrate, in the second step; treatment with the Trypsin stop solution produces a fluorophore that can be easily analyzed using fluorescence plate reader.
Assay was done in 96-well black microplate and total volume of the assay was 100 μL. Mouse liver enzyme (10 mg/mL) was diluted 1:6 with HDAC buffer. Enzyme cocktail was made of 10 μL of diluted enzyme and 30 μL of HDAC buffer. 40 μL of enzyme cocktail followed by 10 μL of test compound (1 μM and 10 μM) or buffer (control) was added to each well. The plate was pre-incubated at 37° C. for 5 minutes. The HDAC reaction was started by adding 50 μL of HDAC substrate Boc-Lys (Ac)-AMC (Bachem AG, Switzerland). The plate was incubated at 37° C. for 30 minutes. The reaction was stopped by adding 100 μL of Trypsin stop solution and incubating at 37° C. for 15-30 minutes. Measuring the fluorescence at excitation wavelength of 360 nm and emission wavelength of 460 nm monitored the release of AMC. Buffer alone and substrate alone served as blank.

The subject of experiment [2] is HCT 116 (colon), NCIH460 (lung) and U251 (glioma) cell lines. In words: Anti-cancer screen (MTT growth inhibition). The class given is cell-based. Particulars: mean over HCT 116, NCIH460 and U251 cell lines, 48 hours of incubation. How it is done:
Experimental drugs were screened for anti-cancer activity in three cell lines using five concentrations for each compound. The cell lines—HCT 116 (colon), NCIH460 (lung) and U251 (glioma) were maintained in DMEM containing 10% fetal bovine serum. 96-well microtiter plates are inoculated with cells in 100 μL of cell suspension (5×10^4 cells/mL) for 24 hours at 37° C., 5% CO2, 95% air and 100% relative humidity. A separate plate with these cell lines is also inoculated to determine cell viability before the addition of the compounds (T0)
Following 24-hour incubation, test compounds were added to the 96 well plates. Each plate contains one of the above cell lines and the following samples in triplicate: five different dilutions (0.01, 0.1, 1, 10 and 100 μM) of four test compounds, appropriate dilutions of a cytotoxic standard and growth medium (untreated) wells. Test compounds were dissolved in DMSO to prepare 20 mM stock solutions on the day of drug addition and serial dilutions were carried out in complete growth medium at 2× strength such that 100 μL added to wells gave final concentrations (0.01, 0.1, 1, 10 and 100 μM) in the well. SAHA was used as standard drug in these experiments.
For T0 measurement, 24 hours after seeding the cells, 20 μL of 3-(4,5-dimethyl-2-thiazolyl)-2,5-diphenyl-2H-tetrazolium (MIT) solution per well was added to the ‘T0’ plate and incubated for 3 hours at 37° C. in a CO2 incubator. The plate containing cells and test compounds was treated similarly after 48 hours of incubation. After 3 hours of MTT addition, well contents were aspirated carefully followed by addition of 150 μL DMSO per well. Plates were agitated to ensure dissolution of the formazan crystals in DMSO and absorbance was read at 570 nm (A570).
Percent growth (PG) is calculated relative to the control and zero measurement wells (T0) as follows:
(Mosmann T. Rapid colorimetric assay for cellular growth and survival: application to proliferation and cytotoxicity assays. (J. Immunol. Methods. 1983, 65 (1-2), 55-63; Anne Monks et al). Feasibility of high-flux anticancer drug screen using a diverse panel of cultured human tumor cell lines”. (JNCI, Vol. 83, No. 11, 1991, 757-766).

The compound `O=C(/C=C/c1ccc(CNC23CC4CC(CC(CO)(C4)C2)C3)cc1)NO` [Example 9, (2E)-3-(4-{[(3-hydroxymethyladamant-1-yl)amino]methyl}phenyl)-N-hydroxy acrylamide] came in with a half-maximal inhibitory concentration (IC50) in experiment [1] of 0.24 µM. This compound also registered a GI50 in experiment [2] of 6.1 µM.

The compound `O=C(C=C1C2CC3CC(C2)CC1C3)NCc1ccc(/C=C/C(=O)NO)cc1` [Example 21, (2E)-N-hydroxy-3-(4-{[(tricyclo[3.3.1.1^3,7]dec-2-ylideneacetyl)amino]methyl}phenyl)acrylamide] came in with an IC50 in experiment [1] of 0.043 µM. This compound also yielded a GI50 in experiment [2] of 2.1 µM.

Consider `Nc1ccccc1NC(=O)/C=C/c1ccc(CNC23CC4CC(CC(O)(C4)C2)C3)cc1` [Example 13, (2E)-N-(2-aminophenyl)-3-{4-[(3-hydroxyadamant-1-ylamino)methyl]phenyl}acrylamide], for which, in experiment [1], it took 5.4 µM to reach half-maximal inhibition (IC50). The 50% growth inhibitory concentration (GI50) in experiment [2] stood at 52 µM.

`Nc1ccccc1NC(=O)/C=C/c1ccc(CNC23CC4CC(CC(C4)C2)C3)cc1` [Example 12, (2E)-N-(2-aminophenyl)-3-{4-[(adamant-1-ylamino)methyl]phenyl}acrylamide]: the concentration for half-maximal inhibition (IC50) in experiment [1] was determined as 4.3 µM. Besides, in experiment [2], the GI50 came out at 7 µM.

Regarding `O=C(/C=C/c1ccc(CNC23CC4CC(CC(C4)C2)C3)cc1)NO` [Example 1, (2E)-3-{4-[(adamant-1-ylamino)methyl]phenyl}-N-hydroxyacrylamide], the concentration for half-maximal inhibition (IC50) in experiment [1] was determined as 0.07 µM. In experiment [2], this compound displayed a concentration for 50% growth inhibition (GI50) of 1.8 µM.

On to `O=C(/C=C/c1ccc(CNC(=O)CC2C3CC4CC(C3)CC2C4)cc1)NO` (stereo not shown) [Example 20, (2E)-N-hydroxy-3-(4-{[(adamantyl-2-ylacetyl)amino]methyl}phenyl)acrylamide], for which half-maximal inhibition in experiment [1] (IC50) required 0.008 µM. Besides, growth in experiment [2] was halved (GI50) at 1.2 µM.

`O=C(/C=C/c1ccc(CNC(=O)C23CC4CC(CC(C4)C2)C3)cc1)NO` [Example 25, N-{4-[(1E)-3-(hydroxyamino)-3-oxoprop-1-en-1-yl]benzyl}adamantane-1-carboxamide] displayed an IC50 in experiment [1] of 0.067 µM. Besides, it took 0.1 µM to inhibit growth in experiment [2] by half (GI50).

In turn, `O=C(C=Cc1ccc(CNCCC2C3CC4CC(C3)CC2C4)cc1)NO` (stereo not shown) [Example 17, (2E)-N-hydroxy-3-[4-({[adamant-2-yl)ethyl]amino}methyl)phenyl]acrylamide] returned an IC50 in experiment [1] of 0.00028 µM. The compound also came in with a GI50 in experiment [2] of 0.29 µM.

Take `O=C(/C=C/c1ccc(CNC2C3CC4CC2CC(O)(C4)C3)cc1)NO` (stereo not shown) [Example 16, (2E)-N-hydroxy-3-(4-{[(5-hydroxyadamant-2-yl)amino]methyl}phenyl)acrylamide]: the IC50 in experiment [1] came out at 0.16 µM. Also, the 50% growth inhibitory concentration (GI50) in experiment [2] worked out at 0.4 µM.

In experiment [1], `CC12CC3CC(C)(C1)CC(NCc1ccc(/C=C/C(=O)NO)cc1)(C3)C2` [Example 5, (2E)-3-(4-{[(3,5-dimethyladamant-1-yl)amino]methyl}phenyl)-N-hydroxyacrylamide] returned a concentration for half-maximal inhibition (IC50) of 0.03 µM. This compound gave a 50% growth inhibitory concentration (GI50) in experiment [2] of 1.1 µM.

As to `O=C(C=Cc1ccc(CNCCNC(=O)C23CC4CC(CC(C4)C2)C3)cc1)NO` [Example 29, N-[2-({4-[(1E)-3-(hydroxyamino)-3-oxoprop-1-en-1-yl]benzyl}amino)ethyl]adamantine-1-carboxamide], 0.0104 µM corresponded to half-maximal inhibition in experiment [1] (IC50). The concentration for 50% growth inhibition (GI50) in experiment [2] worked out at 0.2 µM.

For `O=C(CCCCCCC(=O)Nc1ccccc1)NO` [SAHA, suberoylanilide hydroxamic acid, reference compound], halving of growth in experiment [2] (GI50) required 1.26 µM.

In experiment [1], `O=C(/C=C/c1ccc(CN2CC3CC4CC(C3)CC2C4)cc1)NO` [Example 6, (2E)-3-[4-(4-azatricyclo[4.3.1.1^3,8]undec-4-ylmethyl)phenyl]-N-hydroxyacrylamide] gave an IC50 of 0.11 µM. For the same compound, the concentration for 50% growth inhibition (GI50) in experiment [2] came out at 2.8 µM.

Regarding `O=C(/C=C/c1ccc(CNCC23CC4CC(CC2C4)C3)cc1)NO` [Example 32, (2E)-N-hydroxy-3-(4-{[(tricyclo[3.3.1.0^3,7]non-3-ylmethyl)amino]methyl}phenyl)acrylamide], in experiment [1], the midpoint of inhibition, the IC50, lay at 0.000385 µM. The compound also displayed a GI50 in experiment [2] of 0.01 µM.

Consider `O=C(/C=C/c1ccc(CNC(=O)CC23CC4CC(CC(C4)C2)C3)cc1)NO` [Example 23, (2E)-3-(4-{[(adamant-1-ylacetyl)amino]methyl}phenyl)-N-hydroxyacrylamide], for which, in experiment [1], half-maximal inhibition (IC50) required 0.0018 µM. In addition, the 50% growth inhibitory concentration (GI50) in experiment [2] was found to be 0.18 µM.

For the compound `CCOC12CC3CC(CC(NCc4ccc(/C=C/C(=O)NO)cc4)(C3)C1)C2` [Example 4, (2E)-N-hydroxy-3-(4-{[(3-ethoxyadamant-1-yl)amino]methyl}phenyl)acrylamide], in experiment [1], the IC50 was 0.46 µM. The compound also yielded a GI50 in experiment [2] of 3.3 µM.

For the compound `O=C(/C=C/c1ccc(CNC(=O)CC2C3CC4CC2CC(O)(C4)C3)cc1)NO` (stereo not shown) [Example 24, (2E)-N-hydroxy-3-[4-({[(5-hydroxyadamant-2-yl)acetyl]amino}methyl)phenyl]acrylamide], in experiment [1], half-maximal inhibition (IC50) was put at 0.11 µM. The GI50 in experiment [2] came to 4.2 µM.

On to `O=C(/C=C/c1ccc(CNCC23CC4CC(CC(O)(C4)C2)C3)cc1)NO` [Example 11, (2E)-N-hydroxy-3-[4-({[(3-hydroxyadamant-1-yl)methyl]amino}methyl)phenyl]acrylamide], for which the IC50 in experiment [1] stood at 0.00906 µM. It took 0.1 µM to inhibit growth in experiment [2] by half (GI50).

In experiment [1], `O=C(/C=C/c1ccc(CNC2C3CC4CC(C3)CC2C4)cc1)NO` (stereo not shown) [Example 15, (2E)-3-{4-[(adamant-2-ylamino)methyl]phenyl}-N-hydroxyacrylamide] yielded a half-inhibitory concentration (IC50) of 0.06 µM. In experiment [2], the GI50 was determined as 0.15 µM.

`COC12CC3CC(CC(NCc4ccc(/C=C/C(=O)NO)cc4)(C3)C1)C2` [Example 3, (2E)-N-hydroxy-3-(4-{[(3-methoxyadamant-1-yl)amino]methyl}phenyl)acrylamide] yielded a half-maximal inhibitory concentration (IC50) in experiment [1] of 0.26 µM. In experiment [2], this compound yielded a GI50 of 5.2 µM.

In the case of `O=C(/C=C/c1ccc(CNC23CC4CC(C2)CC(c2ccccc2)(C4)C3)cc1)NO` [Example 8, (2E)-3-(4-{[(3-phenyladamant-1-yl)amino]methyl}phenyl)-N-hydroxyacrylamide], half-maximal inhibition in experiment [1] (IC50) required 0.44 µM. The compound also returned a 50% growth inhibitory concentration (GI50) in experiment [2] of 3.5 µM.

With `O=C(/C=C/c1ccc(CNCC(=O)NC23CC4CC(CC(C4)C2)C3)cc1)NO` [Example 28, (2E)-3-[4-({[2-(adamant-1-ylamino)-2-oxoethyl]amino}methyl)phenyl]-N-hydroxyacrylamide], it took 0.08 µM to reach half-maximal inhibition in experiment [1] (IC50). This compound also gave a concentration for 50% growth inhibition (GI50) in experiment [2] of 4.4 µM.

On to `O=C(/C=C/c1ccc(CNCCC2C3CC4CC2CC(O)(C4)C3)cc1)NO` (stereo not shown) [Example 19, (2E)-N-hydroxy-3-[4-({[(5-hydroxyadamant-2-yl)ethyl]amino}methyl)phenyl]acrylamide], for which the IC50 in experiment [1] came out at 0.028 µM. The compound further registered a 50% growth inhibitory concentration (GI50) in experiment [2] of 0.22 µM.

`O=C(/C=C/c1ccc(CNC23CC4CC(CC(O)(C4)C2)C3)cc1)NO` [Example 2, (2E)-N-hydroxy-3-(4-{[(3-hydroxyadamant-1-yl)amino]methyl}phenyl)acrylamide] registered a half-inhibitory concentration (IC50) in experiment [1] of 0.25 µM. In experiment [2], this compound showed a 50% growth inhibitory concentration (GI50) of 5.1 µM.

For `O=C(/C=C/c1ccc(CNC23CC4CC(CC(Cl)(C4)C2)C3)cc1)NO` [Example 7, (2E)-3-(4-{[(3-chloroadamant-1-yl)amino]methyl}phenyl)-N-hydroxyacrylamide], in experiment [1], the IC50 came to 0.04 µM. This compound showed a concentration for 50% growth inhibition (GI50) in experiment [2] of 9.7 µM.
